Reference: patent US20220370440A1 (Lead Discovery Center GmbH, priority 2018, published 2022)
Read-outs that look alike come from different tables or passages of the source.

Legend:
[1] = target: Her2 Exon 20 INSYVMA Ba/F3 (Homo sapiens, UniProt P04626, DUP772-775, cells depend on it); test: Her2 Exon 20 INSYVMA Ba/F3 CellTiter-Glo; type: cell-based; conditions: 72 h, read-out: Her2 Exon 20 INSYVMA Ba/F3 CTG IC50
Procedure: (§1) 2. Measurement of Cellular Activity
(§2) The CellTiter-Glo Luminescent Cell Viability Assay (Promega) is a homogeneous method of determining the number of viable cells in culture. It is based on quantification of ATP, indicating the presence of metabolically active cells. Cells are seeded on day 1 at cell numbers that assure assay linearity and optimal signal intensity. After incubation for 24 h in humidified chambers at 37° C. and 5% CO2, compounds in DMSO are added at different concentrations. Cells are further incubated for 72 h at 37° C. and 5% CO2. Cells treated with the compound vehicle DMSO are used as positive controls and cells treated with 10 μM Staurosporine serve as negative controls. At day 5 the CellTiter Glo Reagent is prepared according to the instructions of the kit (Promega Inc.): Reagent is mixed 1:1 with cell culture medium. Thereon, mixture and assay plates are equilibrated at room temperature for 20 min. Equal volumes of the reagent-medium-mixture is added to the volume of culture medium present in each well. The plates are mixed at ˜200 rpm for 2 minutes on an orbital shaker. The microplates are then incubated at room temperature for 10 minutes for stabilization of the luminescent signal. Following incubation the luminescence is recorded on a Victor microplate reader (Perkin Elmer) using a 200 ms integration time. The data is then analyzed with Excel using the XLFIT Plugin (dose response Fit 205) for IC50-determination. As quality control the Z′-factor is calculated from 16 positive and negative control values. Only assay results showing a Z′-factor ≥0.5 are used for further analysis.
(§3) Inhibition is indicated as IC50 [nM] (“−”=not measured). Compounds having an activity designated as “A” provided an IC50≤100 nM; compounds having an activity designated as “B” provided an 100 nM<IC50≤500 nM; compounds having an activity designated as “C” provided an 500 nM<IC50≤1000 nM; compounds having an activity designated as “D” provided an 1000 nM<IC50≤10000 nM; and compounds having an activity designated as “E” provided an IC50>10000 nM.

[2] = target: EGFR Exon 20 INSNPH Ba/F3 (Homo sapiens, UniProt P00533, DUP771-773, cells depend on it); test: EGFR Exon 20 INSNPH Ba/F3 CellTiter-Glo; type: cell-based; conditions: 72 h, read-out: EGFR Exon 20 INSNPH Ba/F3 CTG IC50
Procedure: as §1, §2, §3

H1975 = H1975 CellTiter-Glo; type: cell-based; conditions: Homo sapiens, NCI-H1975; 72 h compound incubation; read-out: H1975 CTG IC50
Procedure: as §1, §2
(§4) Inhibition is indicated as […] [nM] (“−”=not measured). Compounds having an activity designated as “A” provided an IC50≤100 nM; compounds having an activity designated as “B” provided an 100 nM<IC50≤500 nM; compounds having an activity designated as “C” provided an 500 nM<IC50≤1000 nM; compounds having an activity designated as “D” provided an 1000 nM<IC50≤100000 nM; and compounds having an activity designated as “E” provided an IC50>10000 nM.

EGFR T790ML858R = EGFR T790ML858R (Homo sapiens, UniProt P00533, L858R/T790M); test: EGFR T790ML858R Lance assay; type: biochemical
Procedure: as §4

HER2 INS YVMA = target: T1, HER2 INS YVMA (Homo sapiens, UniProt P04626, INS775YVMA); test: Lance Kinase Activity Assay, HER2 INS YVMA (Her2 Exon 20 INSYVMA Lance); type: biochemical
T1 construct: purchased DPF
Procedure: 1. Measurement of HER2 INS YVMA Kinase Activity
This protocol describes how the Lance Kinase Activity Assay was performed to determine IC50 values of compounds of general formula (I) against HER2 INS YVMA. The principle behind this enzymatic assay is based upon the phosphorylation of the Ulight-peptide substrate. It is detected by using a specific EU-labeled anti-phospho peptide antibody. The binding of the Eu labeled anti-phospho peptide antibody to the phosphorylated ULight labeled peptide gives rise to a FRET-signal.
Binding of an inhibitor to the kinase prevents phosphorylation of the Ulight-substrate, resulting in a loss of FRET. In table 2 is summarized the relevant information for the LANCE assay.
The compounds of general formula (I) summarized in Table 3 were serial diluted from a 10 mM DMSO stock solution 1:3 over 8 steps in a total volume of 20 μl.
For every sample, 8 μl of kinase-substrate mix was transferred into a suitable assay plate (e.g. Corning #3673). Compound was added via pintool transfer (10 nl/well) using a Biomek FX robot (BeckmanCoulter). Reaction was started by addition of 2 μl ATP working solution and mixed using variomag teleshaker (Thermo Fischer Scientific). After 1 h incubation at room temperature the reaction was stopped with 10 μl detection mix containing the Eu-labeled phosphospecific antibody and 10 mM EDTA. After a second incubation period of 1 h at room temperature the FRET signal was measured at 340 nm excitation, 665 nm and 615 nm emission (for the ULight-substrate and Eu-AB, respectively) with an Envision spectrophotometer (Perkin Elmer, Waltham, Mass., USA) with 50 μs delay and 300 μs integration time. IC50 values were determined from the sigmoidal dose response curves with the software Quattro Workflow (Quattro GmbH, Munich, Germany).

EGFR wt = EGFR wt (Homo sapiens, UniProt P00533); test: EGFR wt Lance assay; type: biochemical
Procedure: as §4

A431 = A431 CellTiter-Glo; type: cell-based; conditions: Homo sapiens, A-431; 72 h compound incubation; read-out: A431 CTG IC50
Procedure: as §1, §2, §4

Chain of EGFR T790ML858R (P00533 25-1210 T790M/L858R): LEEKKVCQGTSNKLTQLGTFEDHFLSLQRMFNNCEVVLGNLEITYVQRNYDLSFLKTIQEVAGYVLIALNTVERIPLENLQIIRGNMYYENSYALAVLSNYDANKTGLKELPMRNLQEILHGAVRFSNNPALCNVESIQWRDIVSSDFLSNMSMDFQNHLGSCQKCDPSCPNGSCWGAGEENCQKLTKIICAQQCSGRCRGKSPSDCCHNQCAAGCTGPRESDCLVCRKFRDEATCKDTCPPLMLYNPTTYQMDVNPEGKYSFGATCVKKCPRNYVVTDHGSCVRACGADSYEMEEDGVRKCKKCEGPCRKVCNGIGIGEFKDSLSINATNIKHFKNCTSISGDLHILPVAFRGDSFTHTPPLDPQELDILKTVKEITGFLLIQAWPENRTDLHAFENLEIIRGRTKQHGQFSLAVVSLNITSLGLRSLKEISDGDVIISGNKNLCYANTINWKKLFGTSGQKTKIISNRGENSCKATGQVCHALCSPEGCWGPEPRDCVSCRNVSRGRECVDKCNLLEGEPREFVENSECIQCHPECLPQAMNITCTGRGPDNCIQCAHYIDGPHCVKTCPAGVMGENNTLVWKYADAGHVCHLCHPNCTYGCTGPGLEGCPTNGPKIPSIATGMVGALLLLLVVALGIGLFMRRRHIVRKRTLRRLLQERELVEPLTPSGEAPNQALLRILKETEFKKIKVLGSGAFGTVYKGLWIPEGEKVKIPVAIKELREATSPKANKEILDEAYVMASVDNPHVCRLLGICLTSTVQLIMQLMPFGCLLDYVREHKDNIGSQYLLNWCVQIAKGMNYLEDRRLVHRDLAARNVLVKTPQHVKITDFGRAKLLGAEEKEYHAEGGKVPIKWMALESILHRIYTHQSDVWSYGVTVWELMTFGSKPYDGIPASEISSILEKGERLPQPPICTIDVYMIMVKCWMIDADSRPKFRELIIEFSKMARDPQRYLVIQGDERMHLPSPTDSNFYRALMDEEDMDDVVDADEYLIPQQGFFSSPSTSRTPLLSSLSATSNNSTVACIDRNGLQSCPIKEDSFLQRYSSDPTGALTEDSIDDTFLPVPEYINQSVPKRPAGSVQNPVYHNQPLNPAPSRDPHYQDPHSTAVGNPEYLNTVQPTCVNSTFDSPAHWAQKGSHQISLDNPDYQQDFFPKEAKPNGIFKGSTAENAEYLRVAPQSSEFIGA
T1 sequence (P04626 with tags, fused parts or gaps INS775YVMA): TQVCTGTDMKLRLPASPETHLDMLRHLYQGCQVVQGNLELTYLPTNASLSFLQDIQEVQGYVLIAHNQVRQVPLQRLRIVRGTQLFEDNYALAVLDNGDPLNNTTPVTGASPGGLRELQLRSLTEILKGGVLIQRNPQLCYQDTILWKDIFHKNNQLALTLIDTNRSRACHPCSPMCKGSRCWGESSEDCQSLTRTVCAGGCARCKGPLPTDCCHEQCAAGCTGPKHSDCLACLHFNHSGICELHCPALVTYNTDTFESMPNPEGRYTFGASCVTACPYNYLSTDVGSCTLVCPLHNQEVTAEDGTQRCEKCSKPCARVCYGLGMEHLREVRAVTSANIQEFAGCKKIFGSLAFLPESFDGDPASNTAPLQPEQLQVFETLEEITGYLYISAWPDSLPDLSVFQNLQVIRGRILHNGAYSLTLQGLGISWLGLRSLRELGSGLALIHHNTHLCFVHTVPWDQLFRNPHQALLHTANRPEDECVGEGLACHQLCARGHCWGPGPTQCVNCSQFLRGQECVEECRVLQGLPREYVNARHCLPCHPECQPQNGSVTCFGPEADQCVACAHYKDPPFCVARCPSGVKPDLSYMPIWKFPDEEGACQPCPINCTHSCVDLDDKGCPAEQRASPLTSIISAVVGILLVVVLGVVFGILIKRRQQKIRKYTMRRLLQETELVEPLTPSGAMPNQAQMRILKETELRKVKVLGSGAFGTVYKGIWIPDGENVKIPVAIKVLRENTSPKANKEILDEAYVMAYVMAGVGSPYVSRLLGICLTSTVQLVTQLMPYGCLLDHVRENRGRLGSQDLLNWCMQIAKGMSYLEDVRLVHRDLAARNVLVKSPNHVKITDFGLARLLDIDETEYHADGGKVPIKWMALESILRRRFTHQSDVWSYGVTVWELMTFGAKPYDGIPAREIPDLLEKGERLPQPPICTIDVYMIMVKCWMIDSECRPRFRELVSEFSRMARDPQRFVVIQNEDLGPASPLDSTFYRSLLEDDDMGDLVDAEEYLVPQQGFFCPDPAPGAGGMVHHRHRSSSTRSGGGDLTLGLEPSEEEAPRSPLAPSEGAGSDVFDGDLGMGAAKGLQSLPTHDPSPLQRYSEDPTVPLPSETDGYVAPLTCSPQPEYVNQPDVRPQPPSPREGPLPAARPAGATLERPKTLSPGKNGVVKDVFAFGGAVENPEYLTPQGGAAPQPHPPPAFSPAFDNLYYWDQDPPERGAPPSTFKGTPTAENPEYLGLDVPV
Chain of EGFR wt (P00533 25-1210): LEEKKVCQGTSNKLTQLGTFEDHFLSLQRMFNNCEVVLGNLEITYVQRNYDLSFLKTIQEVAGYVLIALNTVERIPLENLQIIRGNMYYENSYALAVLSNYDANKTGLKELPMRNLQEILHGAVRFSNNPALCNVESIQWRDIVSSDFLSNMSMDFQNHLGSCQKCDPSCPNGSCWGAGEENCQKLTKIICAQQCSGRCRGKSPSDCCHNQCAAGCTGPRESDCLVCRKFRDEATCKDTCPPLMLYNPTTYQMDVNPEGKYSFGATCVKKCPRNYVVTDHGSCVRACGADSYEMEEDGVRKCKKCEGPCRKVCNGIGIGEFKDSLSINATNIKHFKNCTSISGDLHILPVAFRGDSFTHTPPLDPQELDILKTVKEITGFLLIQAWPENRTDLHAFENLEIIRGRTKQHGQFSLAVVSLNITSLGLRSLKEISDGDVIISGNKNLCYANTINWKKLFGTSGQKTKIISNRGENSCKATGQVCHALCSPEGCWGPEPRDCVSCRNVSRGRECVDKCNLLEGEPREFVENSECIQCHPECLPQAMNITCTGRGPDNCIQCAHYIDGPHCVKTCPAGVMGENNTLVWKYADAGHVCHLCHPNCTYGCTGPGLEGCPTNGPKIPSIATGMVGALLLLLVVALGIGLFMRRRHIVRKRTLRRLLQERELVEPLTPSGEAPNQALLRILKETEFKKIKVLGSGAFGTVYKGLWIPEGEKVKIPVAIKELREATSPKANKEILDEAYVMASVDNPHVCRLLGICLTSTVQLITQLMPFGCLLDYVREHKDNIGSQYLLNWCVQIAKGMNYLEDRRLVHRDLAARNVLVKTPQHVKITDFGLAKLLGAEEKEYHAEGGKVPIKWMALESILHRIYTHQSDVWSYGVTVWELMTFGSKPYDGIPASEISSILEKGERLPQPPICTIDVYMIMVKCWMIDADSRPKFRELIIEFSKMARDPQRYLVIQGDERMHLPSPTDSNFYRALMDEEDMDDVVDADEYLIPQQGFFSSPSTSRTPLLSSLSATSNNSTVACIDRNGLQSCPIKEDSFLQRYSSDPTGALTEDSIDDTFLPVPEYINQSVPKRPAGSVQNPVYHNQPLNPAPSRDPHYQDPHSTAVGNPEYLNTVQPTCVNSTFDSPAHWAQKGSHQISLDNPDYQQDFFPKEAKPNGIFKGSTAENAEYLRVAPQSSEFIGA
Chain of Her2 Exon 20 INSYVMA Ba/F3 (P04626 with tags, fused parts or gaps DUP772-775): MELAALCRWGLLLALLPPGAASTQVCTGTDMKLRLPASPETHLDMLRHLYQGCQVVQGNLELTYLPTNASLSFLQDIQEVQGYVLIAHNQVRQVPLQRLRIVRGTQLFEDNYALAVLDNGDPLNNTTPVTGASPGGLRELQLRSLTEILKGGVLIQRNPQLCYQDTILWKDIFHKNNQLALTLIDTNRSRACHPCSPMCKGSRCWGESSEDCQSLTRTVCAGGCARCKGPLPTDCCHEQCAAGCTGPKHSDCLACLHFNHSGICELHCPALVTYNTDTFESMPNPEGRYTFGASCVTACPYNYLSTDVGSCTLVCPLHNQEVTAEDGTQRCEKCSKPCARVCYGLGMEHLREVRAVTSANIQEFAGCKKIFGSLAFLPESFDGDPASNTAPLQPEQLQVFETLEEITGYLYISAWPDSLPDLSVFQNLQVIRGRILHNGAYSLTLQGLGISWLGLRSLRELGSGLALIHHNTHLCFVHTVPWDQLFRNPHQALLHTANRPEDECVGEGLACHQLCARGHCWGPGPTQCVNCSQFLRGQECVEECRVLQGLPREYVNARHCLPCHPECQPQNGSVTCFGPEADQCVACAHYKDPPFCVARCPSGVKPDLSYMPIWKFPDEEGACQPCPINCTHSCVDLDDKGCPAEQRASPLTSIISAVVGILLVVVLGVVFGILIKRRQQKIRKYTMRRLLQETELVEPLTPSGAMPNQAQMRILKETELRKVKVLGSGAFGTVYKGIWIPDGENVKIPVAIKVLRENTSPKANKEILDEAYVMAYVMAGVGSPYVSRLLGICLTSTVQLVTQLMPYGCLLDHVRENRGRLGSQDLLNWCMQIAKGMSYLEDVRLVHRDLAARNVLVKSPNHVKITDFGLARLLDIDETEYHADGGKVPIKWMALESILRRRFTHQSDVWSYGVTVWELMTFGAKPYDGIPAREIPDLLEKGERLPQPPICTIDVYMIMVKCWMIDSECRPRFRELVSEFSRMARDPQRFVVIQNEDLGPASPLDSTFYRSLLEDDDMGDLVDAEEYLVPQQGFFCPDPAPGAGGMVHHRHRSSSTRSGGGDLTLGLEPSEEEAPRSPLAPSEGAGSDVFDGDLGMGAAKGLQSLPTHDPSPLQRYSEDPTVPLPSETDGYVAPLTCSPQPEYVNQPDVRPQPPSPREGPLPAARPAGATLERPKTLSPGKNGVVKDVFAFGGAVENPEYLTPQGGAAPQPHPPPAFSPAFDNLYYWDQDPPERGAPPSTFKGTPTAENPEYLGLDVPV

GI50 ([1]; CellTiter-Glo) | GI50 ([2]; CellTiter-Glo) | IC50 (H1975) | IC50 (EGFR T790ML858R) | IC50 (HER2 INS YVMA; biochemical Lance assay) | IC50 (EGFR wt) | GI50 [1] | GI50 [2] | IC50 (HER2 INS YVMA) | IC50 (A431) | SMILES
1000 to 10000 nM | 1000 to 10000 nM | 100 to 500 nM | ≤ 100 nM | ≤ 100 nM | ≤ 100 nM | – | – | – | – | C=CC(=O)Nc1cc(-c2c(-c3cccc(C(=O)N4CCC5(CC4)CN(C)C5)c3)[nH]c3nccc(Cl)c23)ccc1C [Example 53, N-(5-(4-chloro-2-(3-(2-methyl-2,7-diazaspiro[3.5]nonane-7-carbonyl)phenyl)-1H-pyrrolo[2,3-b]pyridin-3-yl)-2-methylphenyl)acrylamide]
– | – | – | – | – | – | 754 nM | 1310 nM | 916 nM | – | CCC(=O)Nc1cc(-c2c(-c3ccc(N4CCN(C)CC4)cc3)[nH]c3nccc(Cl)c23)ccc1C [reference compound]
1000 to 10000 nM | 1000 to 10000 nM | 100 to 500 nM | ≤ 100 nM | 100 to 500 nM | 100 to 500 nM | – | – | – | – | C=CC(=O)Nc1cc(-c2c(-c3cccc(C(=O)N4CCN(C)CC4)c3)[nH]c3nccc(Cl)c23)ccc1C [Example 44, N-(5-(4-chloro-2-(3-(4-methylpiperazine-1-carbonyl)phenyl)-1H-pyrrolo[2,3-b]pyridin-3-yl)-2-methylphenyl)acrylamide 2,2,2-trifluoroacetate]
1000 to 10000 nM | 1000 to 10000 nM | 500 to 1000 nM | 100 to 500 nM | > 10000 nM | 1000 to 100000 nM | – | – | – | – | C=CC(=O)Nc1cc(-c2c(-c3cccc(C(=O)NC4CCCCC4)c3)[nH]c3nccc(Cl)c23)ccc1C [Example 50, 3-(3-(3-acrylamido-4-methylphenyl)-4-chloro-1H-pyrrolo[2,3-b]pyridin-2-yl)-N-cyclohexylbenzamide]
1000 to 10000 nM | 1000 to 10000 nM | 100 to 500 nM | 100 to 500 nM | 1000 to 10000 nM | 500 to 1000 nM | – | – | – | – | C=CC(=O)Nc1cc(-c2c(-c3ccc(F)c(C(=O)N4CCOCC4)c3)[nH]c3nccc(Cl)c23)ccc1C [Example 33, N-(5-(4-chloro-2-(4-fluoro-3-(morpholine-4-carbonyl)phenyl)-1H-pyrrolo[2,3-b]pyridin-3-yl)-2-methylphenyl)acrylamide]
1000 to 10000 nM | 1000 to 10000 nM | 1000 to 100000 nM | ≤ 100 nM | 1000 to 10000 nM | 500 to 1000 nM | – | – | – | – | C=CC(=O)Nc1cc(-c2c(-c3cccc(C(=O)N4CCC5(CCNC5=O)CC4)c3)[nH]c3nccc(Cl)c23)ccc1C [Example 46, N-(5-(4-chloro-2-(3-(1-oxo-2,8-diazaspiro[4.5]decane-8-carbonyl)phenyl)-1H-pyrrolo[2,3-b]pyridin-3-yl)-2-methylphenyl)acrylamide]
500 to 1000 nM | 500 to 1000 nM | ≤ 100 nM | ≤ 100 nM | 100 to 500 nM | ≤ 100 nM | – | – | – | – | C=CC(=O)Nc1cc(-c2c(-c3cccc(C(=O)NCCCN(C)Cc4ccccc4)c3)[nH]c3nccc(Cl)c23)ccc1C [Example 51, 3-(3-(3-acrylamido-4-methylphenyl)-4-chloro-1H-pyrrolo[2,3-b]pyridin-2-yl)-N-(3-(benzyl(methyl)amino)propyl)benzamide]
1000 to 10000 nM | 1000 to 10000 nM | 100 to 500 nM | ≤ 100 nM | 100 to 500 nM | 100 to 500 nM | – | – | – | – | C=CC(=O)Nc1cc(-c2c(-c3cccc(C(=O)N4CCN(C(C)=O)CC4)c3)[nH]c3nccc(Cl)c23)ccc1C [Example 52, N-(5-(2-(3-(4-acetylpiperazine-1-carbonyl)phenyl)-4-chloro-1H-pyrrolo[2,3-b]pyridin-3-yl)-2-methylphenyl)acrylamide]
1000 to 10000 nM | 1000 to 10000 nM | 1000 to 100000 nM | 100 to 500 nM | > 10000 nM | 1000 to 100000 nM | – | – | – | – | C=CC(=O)Nc1cc(-c2c(-c3cccc(C(=O)N4CCCCCC4)c3)[nH]c3nccc(Cl)c23)ccc1C [Example 45, N-(5-(2-(3-(azepane-1-carbonyl)phenyl)-4-chloro-1H-pyrrolo[2,3-b]pyridin-3-yl)-2-methylphenyl)acrylamide]
– | – | 100 to 500 nM | ≤ 100 nM | ≤ 100 nM | ≤ 100 nM | – | – | – | 500 to 1000 nM | C=CC(=O)Nc1cc(-c2c(-c3ccc(N4CCN(C)CC4)cc3)[nH]c3ncc(C(=O)OC(C)C)c(C)c23)ccc1C [Example 198, isopropyl 3-(3-acrylamido-4-methylphenyl)-4-methyl-2-(4-(4-methylpiperazin-1-yl)phenyl)-1H-pyrrolo[2,3-b]pyridine-5-carboxylate]
500 to 1000 nM | 1000 to 10000 nM | 100 to 500 nM | ≤ 100 nM | 500 to 1000 nM | 100 to 500 nM | – | – | – | – | C=CC(=O)Nc1cc(-c2c(-c3cccc(C(=O)NC4CC4)c3)[nH]c3nccc(Cl)c23)ccc1C [Example 49, 3-(3-(3-acrylamido-4-methylphenyl)-4-chloro-1H-pyrrolo[2,3-b]pyridin-2-yl)-N-cyclopropylbenzamide]
1000 to 10000 nM | 1000 to 10000 nM | 500 to 1000 nM | 100 to 500 nM | 1000 to 10000 nM | 1000 to 100000 nM | – | – | – | – | C=CC(=O)Nc1cc(-c2c(-c3ccc(Cl)c(C(=O)N4CCOCC4)c3)[nH]c3nccc(Cl)c23)ccc1C [Example 34, N-(5-(4-chloro-2-(4-chloro-3-(morpholine-4-carbonyl)phenyl)-1H-pyrrolo[2,3-b]pyridin-3-yl)-2-methylphenyl)acrylamide]
500 to 1000 nM | 500 to 1000 nM | ≤ 100 nM | ≤ 100 nM | 100 to 500 nM | ≤ 100 nM | – | – | – | – | C=CC(=O)Nc1cc(-c2c(-c3cccc(N4CCN(C(C)=O)CC4)c3)[nH]c3nccc(Cl)c23)ccc1C [Example 35, N-(5-(2-(3-(4-acetylpiperazin-1-yl)phenyl)-4-chloro-1H-pyrrolo[2,3-b]pyridin-3-yl)-2-methylphenyl)acrylamide]
– | – | – | – | – | – | 64 nM | 35 nM | 5 nM | – | C=CC(=O)Nc1cc(-c2c(-c3ccc(N4CCN(C)CC4)cc3)[nH]c3nccc(Cl)c23)ccc1C [drawing 711]
